Laboratory results taken from patent US7998965B2, “Glutamate aggrecanase inhibitors” (Wyeth LLC, priority 2005, dated 2011).
Values after ≈ are worked out from the molar mass of the structure shown.

Legend:
recombinant human MMP-2 = biological target: T1, recombinant human MMP-2 (Homo sapiens, UniProt P08253); test: In vitro fluorescence assay of MMP-2 activity
T1 sequence (P08253 110-660): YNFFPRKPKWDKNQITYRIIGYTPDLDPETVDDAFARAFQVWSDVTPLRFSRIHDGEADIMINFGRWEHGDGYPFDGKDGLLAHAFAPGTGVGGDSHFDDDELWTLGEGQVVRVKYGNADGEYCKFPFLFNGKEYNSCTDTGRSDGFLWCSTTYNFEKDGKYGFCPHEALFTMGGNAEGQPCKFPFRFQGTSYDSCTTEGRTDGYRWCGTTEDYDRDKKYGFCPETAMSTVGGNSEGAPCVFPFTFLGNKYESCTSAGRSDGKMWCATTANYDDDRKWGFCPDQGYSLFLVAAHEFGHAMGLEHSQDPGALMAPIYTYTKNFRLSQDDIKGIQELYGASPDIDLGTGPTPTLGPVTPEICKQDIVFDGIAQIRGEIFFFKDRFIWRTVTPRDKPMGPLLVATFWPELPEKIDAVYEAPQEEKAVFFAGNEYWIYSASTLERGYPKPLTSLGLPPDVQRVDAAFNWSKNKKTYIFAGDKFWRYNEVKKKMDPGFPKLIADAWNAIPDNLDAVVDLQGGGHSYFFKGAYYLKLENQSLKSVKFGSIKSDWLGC

[1] = system: Aggrecanase-mediated aggrecan cleavage in human OA cartilage explants; test: Human osteoarthritic cartilage explant efficacy study (BC3 western analysis); assay type: cell-based
Text: (§1) Human OA Cartilage Explant Culture: Discarded tissues from consented knee replacement patients were obtained from New England Baptist Hospital (Brookline, Mass.) in sterile phosphate buffered saline (PBS) after about 2-4 hrs post surgery. Cartilage slices were harvested from the knee specimens and washed several times in PBS. These cartilage slices were cut into appropriate pieces (6-8 mm) and rinsed in PBS and then in media and further cultured for additional days as cartilage explants. The medium consisted of Dulbecco's Modified Eagle's medium (DMEM, JRH Biosciences, Lenexa, Kans.), 50 μg/ml ascorbic acid (Wako, Osaka, Japan), 10 mM HEPES, pH 7.0 (Mediatech, Herndon, Va.), 2 mM L-glutamine (Mediatech), 100 U/ml antibiotic-antimycotic solution (Mediatech).
Test compounds: The test compounds are described in Examples 8OO, 8NNNNNNN, and 8WWWWWWW. Stock solutions of the compounds were prepared at 1 mg/ml in DMSO, aliquoted and stored at −20° C. Working solutions of the compounds were made in DMSO and added to the culture for efficacy studies.
Efficacy study: Cartilage explants were cultured for 2-3 days in DMEM medium in a 37° C. and 5% CO2 environment to equilibrate the tissue. Explants were weighed (˜250 mg) and placed in wells of a 24-well culture dish in 1 ml of medium and 3 replicates per treatment group. For the efficacy study, cartilage explants were cultured for 6 days in the presence or absence of various concentrations of the test compound. The media was replaced on day 3 and the experiment was terminated on day 6. Total aggrecan content of conditioned media was measured by a colorimetric assay with DMMB (Farndale, R W et al., Biochim Biophys Acta. 1986, 883, 173-177).
Western analysis: Aggrecan fragments in conditioned medium were analyzed by western analysis using neoepitope antibody, BC-3 designed to recognize the Aggrecanase-generated N-terminal interglobular neoepitope ^374ARGS. Equal cartilage weight equivalent conditioned media from each replicate well per treatment group was pooled and digested with Chondroitinase ABC (Sigma, St Louis, Mo.), Keratinase I (Seikagaku America, Falmouth, Mass.) and Keratinase II (Seikagaku America, Falmouth, Mass.) for 2 h at 37° C. Samples were concentrated by YM-10 centrifugal filter device (Millipore Corp., Bedford, Mass.), lyophilized and reconstituted with equal volume of water. Samples were separated under reducing conditions on 4-12% gradient Tris-glycine gels (Invitrogen, Carlsbad, Calif.). Proteins from the gels were transferred to nitrocellulose membranes. Immunoblots were probed using Mab BC-3 (Abcam, Cambridge, Mass.). Incubation with primary and alkaline-phosphatase-conjugated secondary goat anti-mouse IgG (Promega Corp., Madison, Wis.) was performed overnight at 4° C. and at room temperature for 1 h, respectively. The immunoblots were incubated with NBT/BCIP substrate (Promega Corp., Madison, Wis.) at room temperature to achieve optimum color development. The aggrecan fragments containing the ARGS neoepitope were quantitated by densitometry analysis and the percentage inhibition of aggrecan degradation by test compounds was determined.

[2] = system: newly synthesized aggrecan in human OA articular cartilage; test: Cartilage aggrecan metabolism study in human OA cartilage explants; assay type: cell-based; conditions: cartilage from 3 human OA donors, 35SO4 label
Text: as §1
Cartilage aggrecan metabolism study: Cartilage metabolism study was performed with test compound 8OO. Cartilage explants immediately after harvest were cultured in the presence or absence of test compound 8OO. On day 3, media was collected and replaced with media, test compound and labeled sulfate (^35SO4,5 mCi, Perkin Elmer, Boston, Mass.). On day 6, media was collected, explants washed and replaced with media and test compound 8OO. […] Labeled aggrecan molecules were counted using Opti-Fluor (Perkin Elmer) and a liquid scintillation-measuring instrument (Beckman Coulter, Fullerton, Calif.). […]

**Q.** Which results are given for `CC(C)(Cc1ccc(F)cc1)NC(=O)[C@H](CCC(=O)O)NC(=O)c1ccc(-c2ccccc2)cc1` [Example 8OO, N^2-(1,1′-biphenyl-4-ylcarbonyl)-N^1-[2-(4-fluorophenyl)-1,1-dimethylethyl]-L-α-glutamine]?
**A.** IC50 (recombinant human MMP-2): > 20 µM; EC50 ([1]; 144 h, human OA cartilage explants, 6 days, BC3 analysis, read-out: EC50 (inhibition of aggrecanase generated aggrecan fragments)): ~0.15 µg/mL (≈ 0.315 µM); inhibition at 0.02 µg/mL ([1]; Homo sapiens, 0.02 ug/ml, average of 15 donors, read-out: % inhibition (BC3 analysis)): 8.52%; inhibition at 0.04 µg/mL ([1]; Homo sapiens, 0.04 ug/ml, average of 15 donors, read-out: % inhibition (BC3 analysis)): 26.2%; inhibition at 0.08 µg/mL ([1]; Homo sapiens, 0.08 ug/ml, average of 15 donors, read-out: % inhibition (BC3 analysis)): 42.9%; inhibition at 0.15 µg/mL ([1]; Homo sapiens, 0.15 ug/ml, average of 15 donors, read-out: % inhibition (BC3 analysis)): 49%; inhibition at 0.3 µg/mL ([1]; Homo sapiens, 0.3 ug/ml, average of 15 donors, read-out: % inhibition (BC3 analysis)): 56.4%; inhibition at 0.6 µg/mL ([1]; Homo sapiens, 0.6 ug/ml, average of 15 donors, read-out: % inhibition (BC3 analysis)): 73.9%; inhibition at 1.25 µg/mL ([1]; Homo sapiens, 1.25 ug/ml, average of 15 donors, read-out: % inhibition (BC3 analysis)): 83.4%; inhibition at 2.5 µg/mL ([1]; Homo sapiens, 2.5 ug/ml, average of 15 donors): 101%; inhibition at 5 µg/mL ([1]; Homo sapiens, 5 ug/ml, average of 15 donors): 98.9%; inhibition at 10 µg/mL ([1]; Homo sapiens, 10 ug/ml, average of 15 donors): 102%; aggrecan released into the medium [2]: equivalent decrease; newly synthesized aggrecan content of the cartilage matrix [2]: dose dependent increase
